What was measured:
[1] = tested on: syngenic and metallothionein-SSAT mice; experiment: Hepatic, pancreatic and renal polyamine concentration in syngenic and metallothionein-SSAT mice after analogue; assay type: in vivo, mouse; settings: Tg mice, 24 h
Description: (§1) α-methylspermidine, Bis-α-methylspermine and α-methylspermine were administered in saline. […] The data are expressed as means ±S.D. For statistical analysis, the two-tailed Student's t test was used.

SSAT = experiment: Hepatic, pancreatic and renal SSAT activity in syngenic and metallothionein-SSAT mice after analogue; assay type: in vivo, mouse; settings: 24 h
Description: as §1

`CC(N)CCNCCCCN` (stereo not drawn) [α-methylspermidine, 1-methylspermidine] was tested, and the “renal Putrescine” value ([1]; 50 mg/kg) was 179.10 pmoles/mg tissue wet weight, the “renal Spermidine” value ([1]; 50 mg/kg) was 231.02 ± 15.59 pmoles/mg tissue wet weight and the “renal Spermine” value ([1]; 50 mg/kg) was 896.89 ± 25.61 pmoles/mg tissue wet weight. The “renal α-Methylspermidine” value ([1]; 50 mg/kg) was 133.67 pmoles/mg tissue wet weight, the “hepatic N^1-Acetyl-spermidine” value ([1]; 100 mg/kg) was 293.66 pmoles/mg tissue wet weight and the “hepatic Putrescine” value ([1]; 100 mg/kg) was 834.88 pmoles/mg tissue wet weight. The “hepatic Spermidine” value ([1]; 100 mg/kg) was 286.11 pmoles/mg tissue wet weight, the “hepatic Spermine” value ([1]; 100 mg/kg) was 97.52 ± 52.21 pmoles/mg tissue wet weight and the “hepatic α-Methyl-spermidine” value ([1]; 100 mg/kg) was 676.44 pmoles/mg tissue wet weight. The “pancreatic N^1-Acetyl-spermidine” value ([1]; 100 mg/kg) was 656.51 pmoles/mg tissue wet weight, the “pancreatic Putrescine” value ([1]; 100 mg/kg) was 4467.46 pmoles/mg tissue wet weight and the “pancreatic Spermidine” value ([1]; 100 mg/kg) was 1539.88 ± 351.44 pmoles/mg tissue wet weight. For the same compound, the “pancreatic Spermine” value ([1]; 100 mg/kg) was 211.73 pmoles/mg tissue wet weight, the “pancreatic α-Methyl-spermidine” value ([1]; 100 mg/kg) was 731.63 pmoles/mg tissue wet weight and the “renal N^1-Acetylspermidine” value ([1]; 100 mg/kg) was 65.00 pmoles/mg tissue wet weight. For the same compound, the “renal Putrescine” value ([1]; 100 mg/kg) was 133.86 pmoles/mg tissue wet weight, the “renal Spermidine” value ([1]; 100 mg/kg) was 212.40 ± 10.9 pmoles/mg tissue wet weight and the “renal Spermine” value ([1]; 100 mg/kg) was 840.58 ± 67.32 pmoles/mg tissue wet weight. The “renal α-Methylspermidine” value ([1]; 100 mg/kg) was 136.61 pmoles/mg tissue wet weight, the “hepatic N^1-Acetyl-spermidine” value ([1]; 150 mg/kg) was 230.96 pmoles/mg tissue wet weight and the “hepatic Putrescine” value ([1]; 150 mg/kg) was 603.18 pmoles/mg tissue wet weight. The “hepatic Spermidine” value ([1]; 150 mg/kg) was 260.13 pmoles/mg tissue wet weight, the “hepatic Spermine” value ([1]; 150 mg/kg) was 79.41 ± 25.11 pmoles/mg tissue wet weight and the “hepatic α-Methyl-spermidine” value ([1]; 150 mg/kg) was 1206.94 pmoles/mg tissue wet weight. For the same compound, the “pancreatic N^1-Acetyl-spermidine” value ([1]; 150 mg/kg) was 185.50 pmoles/mg tissue wet weight, the “pancreatic Putrescine” value ([1]; 150 mg/kg) was 4457.91 pmoles/mg tissue wet weight and the “pancreatic Spermidine” value ([1]; 150 mg/kg) was 1244.49 ± 565.07 pmoles/mg tissue wet weight. For the same compound, the “pancreatic Spermine” value ([1]; 150 mg/kg) was 213.86 pmoles/mg tissue wet weight, the “pancreatic α-Methyl-spermidine” value ([1]; 150 mg/kg) was 942.74 pmoles/mg tissue wet weight and the “renal N^1-Acetylspermidine” value ([1]; 150 mg/kg) was 41.78 pmoles/mg tissue wet weight. The “renal Putrescine” value ([1]; 150 mg/kg) was 119.47 pmoles/mg tissue wet weight, the “renal Spermidine” value ([1]; 150 mg/kg) was 201.24 ± 19.1 pmoles/mg tissue wet weight and the “renal Spermine” value ([1]; 150 mg/kg) was 721.39 ± 64.84 pmoles/mg tissue wet weight. For the same compound, the “renal α-Methylspermidine” value ([1]; 150 mg/kg) was 148.99 pmoles/mg tissue wet weight, the “hepatic N^1-Acetyl-spermidine” value ([1]; 250 mg/kg) was 211.54 pmoles/mg tissue wet weight and the “hepatic Putrescine” value ([1]; 250 mg/kg) was 444.97 pmoles/mg tissue wet weight. For the same compound, the “hepatic Spermidine” value ([1]; 250 mg/kg) was 199.53 pmoles/mg tissue wet weight, the “hepatic Spermine” value ([1]; 250 mg/kg) was 36.38 ± 9.89 pmoles/mg tissue wet weight and the “hepatic α-Methyl-spermidine” value ([1]; 250 mg/kg) was 1293.76 pmoles/mg tissue wet weight. For the same compound, the “pancreatic N^1-Acetyl-spermidine” value ([1]; 250 mg/kg) was 137.01 pmoles/mg tissue wet weight, the “pancreatic Putrescine” value ([1]; 250 mg/kg) was 4637.87 pmoles/mg tissue wet weight and the “pancreatic Spermidine” value ([1]; 250 mg/kg) was 967.83 ± 396.04 pmoles/mg tissue wet weight. For the same compound, the “pancreatic Spermine” value ([1]; 250 mg/kg) was 157.23 pmoles/mg tissue wet weight, the “pancreatic α-Methyl-spermidine” value ([1]; 250 mg/kg) was 1166.56 pmoles/mg tissue wet weight and the “renal N^1-Acetylspermidine” value ([1]; 250 mg/kg) was 48.47 pmoles/mg tissue wet weight. For the same compound, the “renal Putrescine” value ([1]; 250 mg/kg) was 103.63 pmoles/mg tissue wet weight, the “renal Spermidine” value ([1]; 250 mg/kg) was 185.82 ± 18.56 pmoles/mg tissue wet weight and the “renal Spermine” value ([1]; 250 mg/kg) was 597.01 ± 91.36 pmoles/mg tissue wet weight. For the same compound, the “renal α-Methylspermidine” value ([1]; 250 mg/kg) was 169.73 pmoles/mg tissue wet weight, the “hepatic N^1-Acetyl-spermidine” value ([1]; 375 mg/kg) was 252.33 pmoles/mg tissue wet weight and the “hepatic Putrescine” value ([1]; 375 mg/kg) was 861.39 pmoles/mg tissue wet weight. The “hepatic Spermidine” value ([1]; 375 mg/kg) was 168.25 pmoles/mg tissue wet weight, the “hepatic Spermine” value ([1]; 375 mg/kg) was 41.95 ± 8.02 pmoles/mg tissue wet weight and the “hepatic α-Methyl-spermidine” value ([1]; 375 mg/kg) was 1012.46 pmoles/mg tissue wet weight. The “pancreatic N^1-Acetyl-spermidine” value ([1]; 375 mg/kg) was 95.41 pmoles/mg tissue wet weight, the “pancreatic Putrescine” value ([1]; 375 mg/kg) was 4826.59 pmoles/mg tissue wet weight and the “pancreatic Spermidine” value ([1]; 375 mg/kg) was 1002.33 ± 365.29 pmoles/mg tissue wet weight. The “pancreatic Spermine” value ([1]; 375 mg/kg) was 122.49 pmoles/mg tissue wet weight, the “pancreatic α-Methyl-spermidine” value ([1]; 375 mg/kg) was 1378.62 pmoles/mg tissue wet weight and the “renal N^1-Acetylspermidine” value ([1]; 375 mg/kg) was 44.65 pmoles/mg tissue wet weight. For the same compound, the “renal Putrescine” value ([1]; 375 mg/kg) was 127.41 pmoles/mg tissue wet weight, the “renal Spermidine” value ([1]; 375 mg/kg) was 173.73 ± 13.69 pmoles/mg tissue wet weight and the “renal Spermine” value ([1]; 375 mg/kg) was 580.26 ± 51.87 pmoles/mg tissue wet weight. The “renal α-Methylspermidine” value ([1]; 375 mg/kg) was 192.90 pmoles/mg tissue wet weight, the “SSAT activity, Kidney” value (SSAT; Sg mice, 50 mg/kg) was 4.98 pmoles/10 min/mg tissue wet weight and the “SSAT activity, Liver” value (SSAT; Sg mice, 50 mg/kg) was 3.74 pmoles/10 min/mg tissue wet weight. For the same compound, the “SSAT activity, Pancreas” value (SSAT; Sg mice, 50 mg/kg) was 6.58 pmoles/10 min/mg tissue wet weight, the “SSAT activity, Kidney” value (SSAT; Sg mice, 100 mg/kg) was 4.61 pmoles/10 min/mg tissue wet weight and the “SSAT activity, Liver” value (SSAT; Sg mice, 100 mg/kg) was 3.77 pmoles/10 min/mg tissue wet weight. For the same compound, the “SSAT activity, Pancreas” value (SSAT; Sg mice, 100 mg/kg) was 7.50 pmoles/10 min/mg tissue wet weight, the “SSAT activity, Kidney” value (SSAT; Sg mice, 150 mg/kg) was 5.05 pmoles/10 min/mg tissue wet weight and the “SSAT activity, Liver” value (SSAT; Sg mice, 150 mg/kg) was 4.16 pmoles/10 min/mg tissue wet weight. For the same compound, the “SSAT activity, Pancreas” value (SSAT; Sg mice, 150 mg/kg) was 6.91 pmoles/10 min/mg tissue wet weight, the “SSAT activity, Liver” value (SSAT; Sg mice, 250 mg/kg) was 3.75 pmoles/10 min/mg tissue wet weight and the “SSAT activity, Pancreas” value (SSAT; Sg mice, 250 mg/kg) was 12.10 pmoles/10 min/mg tissue wet weight. For the same compound, the “SSAT activity, Liver” value (SSAT; Sg mice, 375 mg/kg) was 9.52 pmoles/10 min/mg tissue wet weight, the “SSAT activity, Pancreas” value (SSAT; Sg mice, 375 mg/kg) was 18.19 pmoles/10 min/mg tissue wet weight and the “SSAT activity, Kidney” value (SSAT; Sg mice, 500 mg/kg) was 14.67 pmoles/10 min/mg tissue wet weight. For the same compound, the “SSAT activity, Liver” value (SSAT; Sg mice, 500 mg/kg) was 16.06 pmoles/10 min/mg tissue wet weight, the “SSAT activity, Pancreas” value (SSAT; Sg mice, 500 mg/kg) was 26.85 pmoles/10 min/mg tissue wet weight and the “SSAT activity, Kidney” value (SSAT; Tg mice, 50 mg/kg) was 3.19 pmoles/10 min/mg tissue wet weight. For the same compound, the “SSAT activity, Liver” value (SSAT; Tg mice, 50 mg/kg) was 74.88 pmoles/10 min/mg tissue wet weight, the “SSAT activity, Pancreas” value (SSAT; Tg mice, 50 mg/kg) was 179.02 pmoles/10 min/mg tissue wet weight and the “SSAT activity, Kidney” value (SSAT; Tg mice, 100 mg/kg) was 3.13 pmoles/10 min/mg tissue wet weight. The “SSAT activity, Liver” value (SSAT; Tg mice, 100 mg/kg) was 74.88 pmoles/10 min/mg tissue wet weight, the “SSAT activity, Pancreas” value (SSAT; Tg mice, 100 mg/kg) was 226.27 pmoles/10 min/mg tissue wet weight and the “SSAT activity, Kidney” value (SSAT; Tg mice, 150 mg/kg) was 3.36 pmoles/10 min/mg tissue wet weight. For the same compound, the “SSAT activity, Liver” value (SSAT; Tg mice, 150 mg/kg) was 81.59 pmoles/10 min/mg tissue wet weight, the “SSAT activity, Pancreas” value (SSAT; Tg mice, 150 mg/kg) was 183.078 pmoles/10 min/mg tissue wet weight and the “SSAT activity, Liver” value (SSAT; Tg mice, 250 mg/kg) was 95.04 pmoles/10 min/mg tissue wet weight. The “SSAT activity, Pancreas” value (SSAT; Tg mice, 250 mg/kg) was 188.45 pmoles/10 min/mg tissue wet weight, the “SSAT activity, Liver” value (SSAT; Tg mice, 375 mg/kg) was 135.53 pmoles/10 min/mg tissue wet weight and the “SSAT activity, Pancreas” value (SSAT; Tg mice, 375 mg/kg) was 133.57 pmoles/10 min/mg tissue wet weight.

From patent US7202280B2, “Methods for the treatment and prevention of pancreatitis and for induction of liver regeneration” (priority 2002, dated 2007)
